# Legend:
# MLE-12 cells = experiment: Mitochondrial H2O2 generation in MLE-12 cells exposed to chrysotile (pHPA assay); assay type: cell-based; conditions: FIG. 11G, DGBP 10 μM overnight, chrysotile 10 μg/cm^2 for 1 h
# Method: (§1) THP-1, MLE-12, and HLF-1 cell lines were obtained from American Type Culture Collection (Manassas, Va.). Cells were maintained in RPMI-1640, Hites, or F-12K media supplemented with fetal bovine serum and penicillin/streptomycin. All experiments were performed with media supplemented with 0.5% serum.
# (§2) Extracellular H2O2 production was determined fluorometrically, as previously described (He, C., et al., Mitochondrial Cu,Zn-Superoxide Dismutase Mediates Pulmonary Fibrosis by Augmenting H2O2 Generation. J Biol Chem, 2011. 286(17): p. 15597-607). Briefly, cells were incubated in phenol-red free Hanks' balanced salt solution supplemented with 6.5 mM glucose, 1 mM HEPES, 6 mM sodium bicarbonate, 1.6 mM pHPA, and 0.95 μg/ml HRP. Fluorescence of the pHPA-dimer was measured using a spectrofluorometer at excitation of 320 nm and emission of 400 nm. Mitochondrial H2O2 was measured by resuspending mitochondria in phenol-red free Hanks' balanced salt solution supplemented with 6.5 mM glucose, 1 mM HEPES, 6 mM sodium bicarbonate, 1.6 mM pHPA, 0.95 μg/ml HRP and 5 mM α-ketoglutarate.
# (§3) Mitochondria were isolated as previously described (He, C., et al., Mitochondrial Cu,Zn-Superoxide Dismutase Mediates Pulmonary Fibrosis by Augmenting H2O2 Generation. J Biol Chem, 2011. 286(17): p. 15597-607). […]
# Macrophages [1] = experiment: H2O2 generation in macrophages exposed to chrysotile asbestos (pHPA assay); assay type: cell-based
# Method: as §2
# THP-1 cells = experiment: Mitochondrial H2O2 generation in THP-1 cells exposed to chrysotile (pHPA assay); assay type: cell-based; conditions: FIG. 11F, DGBP 10 μM overnight, chrysotile 10 μg/cm^2 for 1 h
# Method: as §1, §2, §3
# Macrophages [2] = experiment: Mitochondrial H2O2 generation in macrophages exposed to chrysotile asbestos (pHPA assay); assay type: cell-based; conditions: Example 1, FIG. 2; DGBP 10 mM; chrysotile asbestos 10 μg/cm^2; isolated mitochondria
# Method: as §2
# (§4) Mitochondria were isolated as previously described (He, C., et al., Mitochondrial Cu,Zn-Superoxide Dismutase Mediates Pulmonary Fibrosis by Augmenting H2O2 Generation. J Biol Chem, 2011. 286(17): p. 15597-607).
# [3] = system: chrysotile-induced pulmonary fibrosis; experiment: Chrysotile asbestos-induced pulmonary fibrosis in mice, DGBP via subcutaneous osmotic pump; assay type: in vivo
# Method: To determine the biological relevance of DGBP on oxidative stress in vivo, WT mice were exposed to asbestos (100 μg i.t.). The mice were treated with vehicle or DGBP via administration utilizing a subcutaneous osmotic pump. After 21 days, the mice were euthanized, and lung oxidative stress was determined by GSH assay.
# (§5) Wild-type C57Bl/6 mice were from Jackson Laboratories (Bar Habor, Me.). The University of Iowa Institutional Animal Care and Use Committee approved all protocols. After equilibration, osmotic pumps (Alzet, Cupertino, Calif.) containing either vehicle (water) or DGBP (0.2 mg/kg/day) were implanted subcutaneously, as describe previously (Erickson, J. R., et al., A dynamic pathway for calcium-independent activation of CaMKII by methionine oxidation. Cell, 2008. 133(3): p. 462-74). Bleomycin (2.0 U/kg) or chrysotile ([…]) was administered intratracheally. Mice were euthanized and fibrosis determined as previously described (Osborn-Heaford, H. L., et al., Mitochondrial Rac1 GTPase Import and Electron Transfer from Cytochrome c Are Required for Pulmonary Fibrosis. The Journal of biological chemistry, 2012. 287(5): p. 3301-12, He, C., et al., Accelerated Development of Pulmonary Fibrosis via Cu,Zn-superoxide Dismutase-induced Alternative Activation of Macrophages. J Biol Chem, 2013. 288(28): p. 20745-57).
# as §4
# (§6) Lung tissue was dried to stable weight and acid hydrolyzed with 6N HCl for 24 h at 120° C. Hydroxyproline concentration normalized, to dry weight of the lung, was determined as described previously (Osborn-Heaford, H. L., et al., Mitochondrial Rac1 GTPase Import and Electron Transfer from Cytochrome c Are Required for Pulmonary Fibrosis. The Journal of biological chemistry, 2012. 287(5): p. 3301-12).
# (§7) Reduced and oxidized glutathione in the lung were determined as described previously (He, C., et al., Mitochondrial Cu,Zn-Superoxide Dismutase Mediates Pulmonary Fibrosis by Augmenting H2O2 Generation. J Biol Chem, 2011. 286(17): p. 15597-607).
# (§8) Whole cells lysates and sub-cellular fractions were separated by SDS-PAGE and transferred to PVDF membranes. Immunoblot analyses on the membranes were performed with the designated antibodies followed by the appropriate secondary antibody cross-linked to HRP.
# To determine if geranylgeranylation of Rac1 is associated with other forms of pulmonary fibrosis, the role of DGBP in modulating chrysotile-induced pulmonary fibrosis was tested. WT mice with subcutaneous osmotic pumps delivering vehicle or DGBP were exposed to chrysotile as previously described (He, C., et al., Mitochondrial Cu,Zn-Superoxide Dismutase Mediates Pulmonary Fibrosis by Augmenting H2O2 Generation. J Biol Chem, 2011. 286(17): p. 15597-607, Osborn-Heaford, H. L., et al., Mitochondrial Rac1 GTPase Import and Electron Transfer from Cytochrome c Are Required for Pulmonary Fibrosis. The Journal of biological chemistry, 2012. 287(5): p. 3301-12, Murthy, S., et al., Rac1-mediated Mitochondrial H2O2 Generation Regulates MMP-9 Gene Expression in Macrophages via Inhibition of SP-1 and AP-1. J Biol Chem, 2010. 285(32): p. 25062-73). It was first determined if DGBP altered mitochondrial Rac1 localization in BAL cells. Alveolar macrophages were obtained by BAL 21 days after chrysotile exposure. […] Lung oxidative stress was also evaluated. […]
# HLF-1 cells = experiment: Mitochondrial H2O2 generation in HLF-1 cells exposed to chrysotile (pHPA assay); assay type: cell-based; conditions: FIG. 11H, DGBP 10 μM overnight, presence or absence of chrysotile
# Method: as §1, §2, §3
# [4] = system: bleomycin-induced pulmonary fibrosis; experiment: Progression of bleomycin-induced pulmonary fibrosis in mice, osmotic pumps installed seven days after bleomycin; assay type: in vivo
# Method: as §5
# Lung tissue was dried to stable weight and acid hydrolyzed with 6N HCl for 24 h at 120° C. […]
# Rap1A = experiment: Geranylgeranylation, immunoblot for non-geranylgeranylated Rap1A in macrophages; assay type: cell-based
# Method: as §8
# (§9) To determine if DGBP inhibits Rac1 import into mitochondria, we exposed macrophages to vehicle (water) or DGBP in cells transfected with an empty control or a wild-type Rac1 expression vector (pRK-Flag-Rac1). […] To confirm that DGBP reduced Rac1 import secondary to inhibiting geranylgeranylation, an immunoblot analysis for Rap 1A, which only recognizes non-geranylgeranylated proteins and is indicative of reduced GGPP levels was performed (Weivoda, M. M. and R. J. Hohl, The effects of direct inhibition of geranylgeranyl pyrophosphate synthase on osteoblast differentiation. J Cell Biochem, 2011. 112(6): p. 1506-13, Wasko, B. M., A. Dudakovic, and R. J. Hohl, Bisphosphonates induce autophagy by depleting geranylgeranyl diphosphate. J Pharmacol Exp Ther, 2011. 337(2): p. 540-6). […] To examine whether DGBP altered H2O2 levels, cells were treated similarly as above described with DGBP (10 mM).
# [5] = Apparent toxicity at the concentrations and doses used in the studies; conditions: in vitro or in vivo
# [6] = system: bleomycin-induced pulmonary fibrosis; experiment: Bleomycin-induced pulmonary fibrosis in mice, DGBP via subcutaneous osmotic pump; assay type: in vivo
# Method: as §5, §4, §6, §7, §8
# Active TGF-β in BAL fluid was measured by ELISA (R&D, Minneapolis, Minn.), according to manufacturer's instructions.
# Because bleomycin increased mitochondrial oxidative stress in alveolar macrophages in vivo, it was next evaluated if bleomycin modulates Rac1 mitochondrial import. Osmotic pumps containing either vehicle (water) or DGBP were implanted subcutaneously in WT mice. DGBP was delivered at a dose of 0.2 mg/kg/day. Mice were exposed to saline or bleomycin the following day, and BAL was performed 21 days later to obtain alveolar macrophages. Mitochondria were isolated to investigate Rac1 localization.
# Rac1 = experiment: Mitochondrial Rac1 import, immunoblot for Flag-Rac1 in isolated mitochondria of transfected macrophages; assay type: cell-based; conditions: for localization of Rac1 to the mitochondria: Example 2, FIG. 8D
# Method: as §4, §8, §9
substance,measurement,setting,value
digeranyl bisphosphonate [DGBP],mitochondrial H2O2 generation,MLE-12 cells,increased H2O2 generation in cells exposed to chrysotile
same,H2O2 generation,"Macrophages [1]; Example 1, FIG. 1, DGBP 10 mM, chrysotile asbestos 10 μg/cm^2",significant reduction in H2O2 to control levels
same,H2O2 levels,"Macrophages [1]; Example 2, FIG. 8F, DGBP 10 mM overnight, presence and absence of chrysotile 10 μg/cm^2, 90 min",decreased H2O2 to control levels
same,mitochondrial H2O2 generation,THP-1 cells,reduced chrysotile-induced H2O2 significantly at all time points
same,mitochondrial H2O2 generation,Macrophages [2],abrogated asbestos-induced mitochondrial H2O2 generation below control levels
same,lung oxidative stress (GSH assay),"[3]; Example 1, FIG. 4, asbestos 100 μg i.t., after 21 days, vs vehicle",significant reduction in lung oxidative stress
same,pulmonary fibrosis (hydroxyproline assay),"[3]; Example 1, FIG. 5, chrysotile asbestos 100 μg i.t., 21 days, vs vehicle",significantly less pulmonary fibrosis
same,"oxidized GSH (% GSSG) in the lung, vehicle relative to DGBP","[3]; FIG. 11B, chrysotile, 21 days",2.5 fold
same,lung histology (Masson's trichrome),"[3]; FIG. 11D, chrysotile, after 21 days",essentially normal
same,lung hydroxyproline,"[3]; FIG. 11E, chrysotile, after 21 days, water vs DGBP",confirmed by hydroxyproline assay
same,mitochondrial H2O2 generation,HLF-1 cells,increased H2O2 in the presence or absence of chrysotile
same,lung collagen deposition (Masson's trichrome),"[4]; FIG. 10C, DGBP 0.2 mg/kg/day from seven days after bleomycin, 21 days after bleomycin","small patches of collagen deposition, but there was significantly less collagen compared to mice that received vehicle"
same,lung hydroxyproline content,"[4]; FIG. 10D, DGBP from seven days after bleomycin, vs vehicle",significantly less hydroxyproline
same,geranylgeranylation (Rap1A immunoblot),"Rap1A; Example 1, FIG. 3B, whole cell lysates",inhibition of geranylgeranylation
same,Rap1A geranylgeranylation,"Rap1A; Example 2, FIG. 8E, 10 mM DGBP, isolated cytoplasm",impaired Rap1A geranylgeranylation
same,apparent toxicity,[5],not associated with apparent toxicity in vitro or in vivo
same,pulmonary fibrosis (hydroxyproline assay),"[6]; Example 1, FIG. 6, bleomycin 2.0 U/kg i.t., 21 days, vs vehicle",significantly less pulmonary fibrosis
same,immunoreactive Rac1 in alveolar macrophage mitochondria,"[6]; FIG. 9B, DGBP 0.2 mg/kg/day, bleomycin 2.0 U/kg, BAL 21 days later",significant reduction in immunoreactive Rac1 in mitochondria
same,non-geranylgeranylated Rap1A in BAL cells,"[6]; FIG. 9B, DGBP 0.2 mg/kg/day, immunoblot",non-geranylgeranylated Rap 1A was increased
same,"oxidized GSH (% GSSG) in lung, vehicle vs DGBP","[6]; FIG. 9C, bleomycin, after 21 days",significantly higher oxidized GSH (% GSSG) than the lungs of mice that received DGBP
same,"active TGF-β in BAL fluid, vehicle relative to DGBP","[6]; FIG. 9D, bleomycin, DGBP 0.2 mg/kg/day, ELISA",greater than 5 fold
same,lung histology (Masson's trichrome),"[6]; FIG. 9F, bleomycin",normal lung architecture
same,lung hydroxyproline,"[6]; FIG. 9G, following bleomycin exposure, vs vehicle",significantly less hydroxyproline
same,mitochondrial Rac1 import,"Rac1; Example 1, FIG. 3A, chrysotile asbestos 10 μg/cm^2 for 1 h",inhibited mitochondrial Rac1 import in a dose-dependent manner
same,localization of Rac1 to the mitochondria,"Rac1; 1 mM DGBP overnight, chrysotile 10 μg/cm^2 for 90 min",Chrysotile induced localization of Rac1 to the mitochondria
same,localization of Rac1 to the mitochondria,"Rac1; 10 mM DGBP overnight, presence or absence of chrysotile",Rac1 was absent from the mitochondria
